Measurements published in patent publication US20230067811A1, “MODULATING LYMPHATIC VESSELS IN NEUROLOGICAL DISEASE” (University of Virginia Patent Foundation, priority 2020, published 2023).

System: microglia
Experiment: Single-cell RNA-seq of brain cortical myeloid cells after meningeal lymphatic ablation
Format: in vivo, mouse
Details: 5×FAD mice, Vis. versus Vis./photo. groups
Protocol: Transcriptome of sorted live CD45^+Ly6G^negCD11b^+ cells pooled from 3 mice per group was analyzed by single-cell RNA-seq (scRNA-seq).
J Neurosci 28, 14156-14164, (2008)). Thus, it was hypothesized that altered microglial function in mice with impaired meningeal lymphatics was contributing to decreased clearance of Aβ by anti-Abeta antibody. Single-cell RNA-seq was performed on live myeloid CD45^+Ly6G^negCD11b^+ cells sorted from the brain cortices of 5×FAD mice with intact or ablated meningeal lymphatics (FIG. 13A). After in-silico removal of undesired cell contaminants, shared nearest neighbor clustering and t-distributed stochastic neighbor embedding, four clusters of microglia were identified (FIG. 13B). […] Cell 169, 1276-1290 e1217, (2017); Krasemann, S. et al. The TREM2-APOE Pathway Drives the Transcriptional Phenotype of Dysfunctional Microglia in Neurodegenerative Diseases. Immunity 47, 566-581 e569, (2017)). Concomitantly, it was observed that there was a significant increase in cortical CD45^high cells (recruited leukocytes and/or activated microglia, FIGS. 13M-13Q) and in the levels of […] (encoded by the H2-D1 gene) in both CD45^intCD11b^+ (microglia) and CD45high CD11b^neg (recruited lymphoid cells) cells in mice with meningeal lymphatic dysfunction (FIGS. 13R-13U). […]

With verteporfin [Visudyne] the “frequency of microglia (% of total cells) from each cluster” value was “similar”.
